The results in this text go back to the supplement of paper PMC10307832.

Holding throughout (assay): relative viability (nuclei count vs DMSO), 5 days (fraction); higher = more cells survive
Compound in the experiment “TGX 221 + OSI-027”: CC1=CN2C(=O)C=C(N=C2C(=C1)C(C)NC3=CC=CC=C3)N4CCOCC4 [TGX 221] + COc1cccc2cc(-c3nc([C@H]4CC[C@H](C(=O)O)CC4)n4ncnc(N)c34)[nH]c12 [OSI-027] (partner 0.5 µM)
Summed up: (§1)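 Dosing by pin tool came one day after lung cancer cell lines were seeded in 1536-well plates, using either one drug or a fixed anchor-drug dose plus five library-drug doses (not always all listed) in √10 steps. After 5 days, nuclei were counted on 4× images. Relative viability is treated-well nuclei count divided by vehicle-well nuclei count, and values are medians of duplicate plates.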

Compound in experiment [1]: O=C(CCCCCCNC(=O)c1cnc(N(c2ccccc2)c2ccccc2)nc1)NO [Ricolinostat] + CS(=O)(=O)N1CCN(Cc2cc3nc(-c4cccc5[nH]ncc45)nc(N4CCOCC4)c3s2)CC1 [Pictilisib] (partner 1 µM)
Summed up:
as §1

Compound in experiment [2]: O=C(CCCCCCNC(=O)c1cnc(N(c2ccccc2)c2ccccc2)nc1)NO [Ricolinostat] + CC(=O)c1c(C)c2cnc(Nc3ccc(N4CCNCC4)cn3)nc2n(C2CCCC2)c1=O [Palbociclib] (partner 0.5 µM)
Summed up:
as §1

Compound in the experiment “Ricolinostat + Foretinib”: O=C(CCCCCCNC(=O)c1cnc(N(c2ccccc2)c2ccccc2)nc1)NO [Ricolinostat] + COc1cc2c(Oc3ccc(NC(=O)C4(C(=O)Nc5ccc(F)cc5)CC4)cc3F)ccnc2cc1OCCCN1CCOCC1 [Foretinib] (partner 0.25 µM)
Summed up:
as §1

Regarding NCI-H1993, the relative viability with TGX 221 + OSI-027 (first compound 0.08 µM) came out at 0.504; with TGX 221 + OSI-027 (first compound 0.253 µM) it was 0.575; with TGX 221 + OSI-027 (first compound 0.8 µM), 0.579; with TGX 221 + OSI-027 (first compound 2.53 µM), 0.559; in the experiment with TGX 221 + OSI-027 (first compound 8 µM), 0.533; in experiment [1] (first compound 0.08 µM) it was 0.645. The relative viability was 0.889 in experiment [1] (first compound 0.253 µM); 0.882 in experiment [1] (first compound 0.8 µM); 0.239 in experiment [1] (first compound 2.53 µM); 0.614 in experiment [2] (first compound 0.08 µM); 0.67 in experiment [2] (first compound 0.253 µM); 0.664 in experiment [2] (first compound 0.8 µM). The relative viability in experiment [2] (first compound 2.53 µM) came to 0.514; in the experiment with Ricolinostat + Foretinib (first compound 0.253 µM) it was 0.893; with Ricolinostat + Foretinib (first compound 0.8 µM), 0.854; with Ricolinostat + Foretinib (first compound 2.53 µM) it was 0.856.
In the case of NCI-H2009, the relative viability with TGX 221 + OSI-027 (first compound 0.08 µM) amounted to 0.543; in the experiment with TGX 221 + OSI-027 (first compound 0.253 µM), 0.583; with TGX 221 + OSI-027 (first compound 0.8 µM) it was 0.574; with TGX 221 + OSI-027 (first compound 2.53 µM) it was 0.569; with TGX 221 + OSI-027 (first compound 8 µM) it was 0.49; in experiment [1] (first compound 0.08 µM), 0.498. Further, the relative viability in experiment [1] (first compound 0.253 µM) was 0.829; in experiment [1] (first compound 0.8 µM), 0.757; in experiment [1] (first compound 2.53 µM), 0.85; in experiment [2] (first compound 0.08 µM) it was 0.164; in experiment [2] (first compound 0.253 µM) it was 0.202; in experiment [2] (first compound 0.8 µM), 0.222. Further, the relative viability worked out at 0.296 in experiment [2] (first compound 2.53 µM); 1.16 with Ricolinostat + Foretinib (first compound 0.08 µM); 1.19 in the experiment with Ricolinostat + Foretinib (first compound 0.253 µM); 1.2 with Ricolinostat + Foretinib (first compound 0.8 µM); 1.05 with Ricolinostat + Foretinib (first compound 2.53 µM).
For the cell line NCI-H2023, the relative viability with TGX 221 + OSI-027 (first compound 0.08 µM) stood at 0.324; in the experiment with TGX 221 + OSI-027 (first compound 0.253 µM) it was 0.328; with TGX 221 + OSI-027 (first compound 0.8 µM), 0.441; with TGX 221 + OSI-027 (first compound 2.53 µM), 0.322; in the experiment with TGX 221 + OSI-027 (first compound 8 µM), 0.275; in experiment [1] (first compound 0.08 µM), 0.162. Also, the relative viability in experiment [1] (first compound 0.253 µM) amounted to 0.277; in experiment [1] (first compound 0.8 µM) it was 0.183; in experiment [1] (first compound 2.53 µM), 0.185; in experiment [2] (first compound 0.08 µM) it was 0.415; in experiment [2] (first compound 0.253 µM), 0.328; in experiment [2] (first compound 0.8 µM) it was 0.42. In addition, the relative viability in experiment [2] (first compound 2.53 µM) came out at 0.397; with Ricolinostat + Foretinib (first compound 0.253 µM) it was 0.799; with Ricolinostat + Foretinib (first compound 0.8 µM), 0.786; with Ricolinostat + Foretinib (first compound 2.53 µM), 0.742.
For NCI-H2085, the relative viability with TGX 221 + OSI-027 (first compound 0.08 µM) stood at 0.714; with TGX 221 + OSI-027 (first compound 0.253 µM), 0.645; with TGX 221 + OSI-027 (first compound 0.8 µM), 0.659; in the experiment with TGX 221 + OSI-027 (first compound 2.53 µM), 0.323; in the experiment with TGX 221 + OSI-027 (first compound 8 µM) it was 0.462; in experiment [1] (first compound 0.253 µM), 0.447. The relative viability in experiment [1] (first compound 0.8 µM) is 0.431; in experiment [1] (first compound 2.53 µM), 0.416; in experiment [2] (first compound 0.253 µM), 0.461; in experiment [2] (first compound 0.8 µM), 0.426; in experiment [2] (first compound 2.53 µM), 0.478; with Ricolinostat + Foretinib (first compound 0.253 µM), 0.867. In addition, the relative viability with Ricolinostat + Foretinib (first compound 0.8 µM) stood at 1.02; with Ricolinostat + Foretinib (first compound 2.53 µM), 0.783.
For NCI-H2087, the relative viability in the experiment with TGX 221 + OSI-027 (first compound 0.08 µM) was 0.579; with TGX 221 + OSI-027 (first compound 0.253 µM), 0.481; with TGX 221 + OSI-027 (first compound 0.8 µM), 0.574; in the experiment with TGX 221 + OSI-027 (first compound 2.53 µM), 0.465; with TGX 221 + OSI-027 (first compound 8 µM), 0.622; in experiment [1] (first compound 0.08 µM), 0.806. Moreover, the relative viability came out at 0.828 in experiment [1] (first compound 0.253 µM); 0.867 in experiment [1] (first compound 0.8 µM); 0.87 in experiment [1] (first compound 2.53 µM); 0.263 in experiment [2] (first compound 0.08 µM); 0.165 in experiment [2] (first compound 0.253 µM); 0.178 in experiment [2] (first compound 0.8 µM). Further, the relative viability in experiment [2] (first compound 2.53 µM) amounted to 0.0962; in the experiment with Ricolinostat + Foretinib (first compound 0.253 µM), 1.09; with Ricolinostat + Foretinib (first compound 0.8 µM), 1.07; with Ricolinostat + Foretinib (first compound 2.53 µM), 1.05.
On to NCI-H2126, for which the relative viability in the experiment with TGX 221 + OSI-027 (first compound 0.08 µM) turned out to be 0.703; in the experiment with TGX 221 + OSI-027 (first compound 0.253 µM) it was 0.733; with TGX 221 + OSI-027 (first compound 0.8 µM) it was 0.619; with TGX 221 + OSI-027 (first compound 2.53 µM), 0.539; with TGX 221 + OSI-027 (first compound 8 µM), 0.702; in experiment [1] (first compound 0.08 µM) it was 0.393. Besides, the relative viability came to 0.497 in experiment [1] (first compound 0.253 µM); 0.459 in experiment [1] (first compound 0.8 µM); 0.383 in experiment [1] (first compound 2.53 µM); 0.347 in experiment [2] (first compound 0.08 µM); 0.347 in experiment [2] (first compound 0.253 µM); 0.353 in experiment [2] (first compound 0.8 µM). Moreover, the relative viability in experiment [2] (first compound 2.53 µM) is 0.363; with Ricolinostat + Foretinib (first compound 0.08 µM), 0.864; in the experiment with Ricolinostat + Foretinib (first compound 0.253 µM), 1.23; with Ricolinostat + Foretinib (first compound 0.8 µM), 1.16; in the experiment with Ricolinostat + Foretinib (first compound 2.53 µM) it was 1.
